Measured values from patent US12595269B2, “Morpholine-like monoamine releasers” (Solvonis Therapeutics Ireland Holdings Limited, priority 2022, dated 2026).

Assay: Apparent permeability (Papp AB) in MDCKII cells
Format: in vitro ADME, Canine
Settings: dog, MDCK; pH 7.4, apical to basolateral, 60 min
Procedure: Methods and Procedure: This study was conducted in compliance with previously described procedures to assure data integrity and adherence to GLP regulations. The experiments described herein were designed to evaluate the apparent permeability (Papp) of test compounds at pH 7.4. Additionally, the MDCKII-MDR1 cell line (Madin-Darby Canine Kidney clone II cell line heterologously expressing the human P-glycoprotein transporter) and mock cell line MDCKII were used to determine whether a compound acted as a P-gp substrate, in the absence and in the presence of the potent P-gp inhibitor. Test control items (digoxin, metoprolol, and atenolol) and control P-gp inhibitor (GF120918) stock solution were prepared in DMSO. Bidirectional assays (Apical to Basolateral [AB] and Basolateral to Apical [BA]) were run, in both the absence and presence of P-gp inhibitor GF120918 in MDCKII-MDR1 and mock cell line MDCKII, using as transport buffer HBSSH at a pH of 7.4 (n=3).
Compounds were tested at a single concentration (i.e. at 3 or 10 μM) at one time point (i.e. 60 min). Alternative concentrations or time-points may also be investigated. As reference compounds, digoxin (P-gp substrate), atenolol (low permeable compound) and metoprolol (high permeable compound) were included at a single concentration (e.g., 10 or 25 μM) and at single time point (e.g., 60 min). Digoxin transport was evaluated in two directions (apical-to-basolateral [AB] and basolateral-to-apical [BA]) in the absence and presence of GF120918 or in mock cells, MDCKII (n=3). Atenolol and metoprolol were only tested in the AB direction in absence of GF120918 or in mock cells, MDCKII (n=3). The integrity of the cell monolayer was evaluated after the permeability experiment using the paracellular permeability marker Lucifer yellow (LY) in the apical to basolateral direction in each well.
MDCKII or MDCKII-MDRI cells cultivated using DMEM (high glucose, GlutaMAX™ supplemented with pyruvate, 10% FBS HI and Pen/Strep) and seeded onto microporous PET (Polyethylene Terephthalate) membranes in HTS 96-Multiwell Insert plates at density of ˜175,000-245,000 cells/cm^2 (25000-35000 cells/well; 50 μL/well) in DMEM medium and incubated for 3-4 days at 37° C.-5% CO2. Medium was changed a day before the experiment.
Stock solutions of test items were prepared in DMSO at a concentration of 5 or 10 mM and stored at −20° C. until use. The potent P-gp inhibitor, GF120918 (stock solution 10 mM) and the reference controls digoxin, atenolol, metoprolol (stock solutions 3 or 10 mM) were prepared in DMSO and stored at −20° C. until use.
Donor working solutions of test items and reference controls will be prepared at a concentration of 10 or 25 μM, diluting the stock solutions in HBSSH. Receiver working solutions contained transport buffer only. […]
MDCKII and MDCKII-MDR1 cells were preincubated (37° C., 15 to 30 minutes) in receiver working solutions containing transport buffer on apical (A) and basolateral (B) sides. Following pre-incubation, test items and control items (digoxin) transport were measured in two directions (apical to basolateral [AB]) and basolateral to apical [BA]), and these directions were performed in triplicate sets of wells, in both the absence and presence of […] GF120918 or mock MDCKII cells. […] Transport of permeability reference controls, atenolol and metoprolol, were measured in one direction (apical to basolateral [AB]) (n=3). […]

Clc1ccc(C23CNC(CO2)C3)cc1Cl (stereo not shown) [522A, 1-(3,4-dichlorophenyl)-2-oxa-5-azabicyclo[2.2.1]heptane]
Papp A→B at 60 min: 9.45 ×10⁻⁶ cm/s

CNC(C)Cc1ccc2c(c1)OCO2 (stereo not shown) [MDMA, reference compound]
Papp A→B at 60 min: 14 ×10⁻⁶ cm/s

Clc1ccc([C@]23CN[C@H](CO2)C3)cc1Cl (single isomer, unassigned) [516A]
Papp A→B at 60 min: 15.8 ×10⁻⁶ cm/s

Clc1ccc([C@@]23CN[C@@H](CO2)C3)cc1Cl (single isomer, unassigned) [518A]
Papp A→B at 60 min: 17.3 ×10⁻⁶ cm/s
